Laboratory results reported in publication PMC6749524, “Identification of New Antifungal Agents Targeting Chitin Synthesis by a Chemical-Genetic Method” (Molecules, 2019).

How the values were obtained:
[1] = tested on: human embryonic kidney 293 cells; experiment: Cytotoxicity assay (MTT); assay type: cell-based; details: concentration as high as 100 μg/mL, 48 hours
Method: (§1) Human embryonic kidney 293 cells and Hela cells were seeded in triplicate in 96-well plates and grown to log-phase in DMEM medium with 10% FBS. Then, the medium was removed, and the cells were incubated with compounds at various concentrations ranging from 3.125 to 100 μg/mL in DMEM medium without FBS. After incubation for 48 hours, MTT reagent was added for further incubation for 4 hours. After we added 50 μL of DMSO, the absorbance was measured at 570 nm. The IC50 values were calculated based on a concentration-response curve.

[2] = tested on: Hela cells; experiment: Cytotoxicity assay (MTT); assay type: cell-based, human; details: concentration as high as 100 μg/mL, 48 hours
Method: as §1

[3] = tested on: CHS1, CHS2, and CHS3 genes; experiment: qRT-PCR gene expression; assay type: cell-based, S. cerevisiae; details: 25 μg/mL, 16 hours
Method: WT yeast cells were grown to 10^5 CFU/mL in YPD medium and then treated with 25 μg/mL compounds or 0.25% DMSO for 16 hours at 30 °C. Then, the cells were collected by centrifugation at 1500 g for 5 min and washed twice with water. Total RNA was prepared using the Yeast RNA kit (OMEGA R6870-01, Norcross, GA, USA) and treated with DNase Ⅰ (TransGen GD201-01, Beijing, China) to remove genomic DNA. The resulting RNA was reverse-transcribed with the cDNA synthesis super-mix kit (TransGen AT311, Beijing, China). qRT-PCR was performed using Fast Universal SYBR Green Master (Rox, Roche, Mannheim, Gemany) and gene-specific primers (Table S1). The DNA level was measured using an Real-Time Quantitative Thermal Cycler (FTC-3000, Funglyn Biotech Inc, Toronto, Canada). The expression levels were correlated with the copy numbers used to amplify the gene to reach the threshold, then represented as the mean ± SEM relative to the cells treated with DMSO. One-way ANOVAs were performed to identify deviation from the mean.

Molecule | growth inhibition (toxicity) [1] | growth inhibition (toxicity) [2] | expression levels of CHS1, CHS2, and CHS3 genes [3]
COc1cc(OC)cc(C(=O)N(CCn2ccnc2)c2nc3ccc(OC)cc3s2)c1 [IMB-F4, N-(2-(1H-imidazol-1-yl)ethyl)-3,5-dimethoxy-N-(6-methoxybenzo[d]thiazol-2-yl)benzamide] | No growth inhibition | No growth inhibition | –
N-(2-(diethylamino) ethyl)-N-(7-hydroxy-4-methoxybenzo[d]thiazol -2-yl)-2-oxo-2H-chromene-3-carboxamide [IMB-D10] | – | – | did not decrease significantly
